# Reference: ChEMBL document CHEMBL4138043, “Quinoides and VEGFR2 TKIs influence the fate of hepatocellular carcinoma and its cancer stem cells” (Medchemcomm, 2017)
# Test system: Huh-7
# Test: Cytotoxicity against human HuH7 cells assessed as growth inhibition after 72 hrs by SRB assay
# Type: functional, cell-based
# Conditions: Homo sapiens, Huh-7, 72 h; read-out: IC50; call rule not given here
row,Structure (SMILES),IC50 [µM]
1,COC1=CC(=O)C(C)=C([S@@+]([O-])c2ccc(C)cc2)C1=O,8
2,CCS(=O)(=O)c1ccc(OC)c(Nc2nc(-c3cccc(-c4ccccn4)c3)co2)c1,0.4
3,Cc1ccc([S@+]([O-])C2=CC(=O)C=CC2=O)cc1,20
4,COC1=CC(=O)C([S@@+]([O-])c2ccc(C)cc2)=CC1=O,10.6
5,CNC(=O)c1cc(Oc2ccc(NC(=O)Nc3ccc(Cl)c(C(F)(F)F)c3)cc2)ccn1.Cc1ccc(S(=O)(=O)O)cc1 [SORAFENIB TOSYLATE],1.6

# Same assay, conditions: huh-7
row,Structure (SMILES),IC50
1,Cc1ccc([S@+]([O-])C2=C(Cl)C(=O)C=CC2=O)cc1,Not Active

# Test system: Hep 3B2
# Test: Cytotoxicity against human Hep3B cells assessed as growth inhibition after 72 hrs by SRB assay
# Type: functional, cell-based
# Conditions: Homo sapiens, Hep3B, 72 h; read-out: IC50
row,Structure (SMILES),IC50 [µM]
1,COC1=CC(=O)C(C)=C([S@@+]([O-])c2ccc(C)cc2)C1=O,5.5
2,CCS(=O)(=O)c1ccc(OC)c(Nc2nc(-c3cccc(-c4ccccn4)c3)co2)c1,0.9
3,Cc1ccc([S@+]([O-])C2=CC(=O)C=CC2=O)cc1,17.4
4,COC1=CC(=O)C([S@@+]([O-])c2ccc(C)cc2)=CC1=O,9.9
5,CNC(=O)c1cc(Oc2ccc(NC(=O)Nc3ccc(Cl)c(C(F)(F)F)c3)cc2)ccn1.Cc1ccc(S(=O)(=O)O)cc1 [SORAFENIB TOSYLATE],1.5

# Same assay, conditions: hep 3b2
row,Structure (SMILES),IC50
1,Cc1ccc([S@+]([O-])C2=C(Cl)C(=O)C=CC2=O)cc1,Not Active

# Test system: Mahlavu
# Test: Cytotoxicity against human Mahlavu cells assessed as growth inhibition after 72 hrs by SRB assay
# Type: functional, cell-based
# Conditions: Homo sapiens, Mahlavu, 72 h; read-out: IC50
row,Structure (SMILES),IC50 [µM]
1,COC1=CC(=O)C(C)=C([S@@+]([O-])c2ccc(C)cc2)C1=O,14.5
2,CCS(=O)(=O)c1ccc(OC)c(Nc2nc(-c3cccc(-c4ccccn4)c3)co2)c1,1.1
3,Cc1ccc([S@+]([O-])C2=CC(=O)C=CC2=O)cc1,31.3
4,COC1=CC(=O)C([S@@+]([O-])c2ccc(C)cc2)=CC1=O,11.3
5,CNC(=O)c1cc(Oc2ccc(NC(=O)Nc3ccc(Cl)c(C(F)(F)F)c3)cc2)ccn1.Cc1ccc(S(=O)(=O)O)cc1 [SORAFENIB TOSYLATE],0.7

# Same assay, conditions: mahlavu
row,Structure (SMILES),IC50
1,Cc1ccc([S@+]([O-])C2=C(Cl)C(=O)C=CC2=O)cc1,Not Active

# Test system: SNU-475
# Test: Cytotoxicity against human SNU475 cells assessed as growth inhibition after 72 hrs by SRB assay
# Type: functional, cell-based
# Conditions: Homo sapiens, SNU-475, 72 h; read-out: IC50
row,Structure (SMILES),IC50 [µM]
1,COC1=CC(=O)C(C)=C([S@@+]([O-])c2ccc(C)cc2)C1=O,10.5
2,Cc1ccc([S@+]([O-])C2=CC(=O)C=CC2=O)cc1,0.3
3,COC1=CC(=O)C([S@@+]([O-])c2ccc(C)cc2)=CC1=O,9

# Same assay, conditions: snu-475
row,Structure (SMILES),IC50
1,Cc1ccc([S@+]([O-])C2=C(Cl)C(=O)C=CC2=O)cc1,Not Active

# Test system: Huh-7
# Test: Disruption of cancer stem cell subpopulation of human HuH7 cells assessed as aggressiveness factor at IC100 after 72 hrs by flow cytometric method
# Type: functional
# Conditions: not given
row,Structure (SMILES),fold change (FC)
1,Cc1ccc([S@+]([O-])C2=C(Cl)C(=O)C=CC2=O)cc1,0.7
2,COC1=CC(=O)C(C)=C([S@@+]([O-])c2ccc(C)cc2)C1=O,1.1
3,CCS(=O)(=O)c1ccc(OC)c(Nc2nc(-c3cccc(-c4ccccn4)c3)co2)c1,1.7
4,Cc1ccc([S@+]([O-])C2=CC(=O)C=CC2=O)cc1,0.9
5,COC1=CC(=O)C([S@@+]([O-])c2ccc(C)cc2)=CC1=O,0.9

# Test system: Hep 3B2
# Test: Disruption of cancer stem cell subpopulation of human Hep3B cells assessed as aggressiveness factor at IC100 after 72 hrs by flow cytometric method
# Type: functional
# Conditions: not given
row,Structure (SMILES),fold change (FC)
1,Cc1ccc([S@+]([O-])C2=C(Cl)C(=O)C=CC2=O)cc1,1
2,COC1=CC(=O)C(C)=C([S@@+]([O-])c2ccc(C)cc2)C1=O,1.1
3,CCS(=O)(=O)c1ccc(OC)c(Nc2nc(-c3cccc(-c4ccccn4)c3)co2)c1,2.6
4,Cc1ccc([S@+]([O-])C2=CC(=O)C=CC2=O)cc1,1.1
5,COC1=CC(=O)C([S@@+]([O-])c2ccc(C)cc2)=CC1=O,1.1

# Test system: Mahlavu
# Test: Disruption of cancer stem cell subpopulation of human Mahlavu cells assessed as aggressiveness factor at IC100 after 72 hrs by flow cytometric method
# Type: functional
# Conditions: not given
row,Structure (SMILES),fold change (FC)
1,Cc1ccc([S@+]([O-])C2=C(Cl)C(=O)C=CC2=O)cc1,0.8
2,COC1=CC(=O)C(C)=C([S@@+]([O-])c2ccc(C)cc2)C1=O,1.3
3,Cc1ccc([S@+]([O-])C2=CC(=O)C=CC2=O)cc1,0.3
4,COC1=CC(=O)C([S@@+]([O-])c2ccc(C)cc2)=CC1=O,2.3

# Test system: SNU-475
# Test: Disruption of cancer stem cell subpopulation of human SNU475 cells assessed as aggressiveness factor at IC100 after 72 hrs by flow cytometric method
# Type: functional
# Conditions: not given
row,Structure (SMILES),fold change (FC)
1,Cc1ccc([S@+]([O-])C2=C(Cl)C(=O)C=CC2=O)cc1,1.5
2,COC1=CC(=O)C(C)=C([S@@+]([O-])c2ccc(C)cc2)C1=O,0.5
3,Cc1ccc([S@+]([O-])C2=CC(=O)C=CC2=O)cc1,0
4,COC1=CC(=O)C([S@@+]([O-])c2ccc(C)cc2)=CC1=O,2

# Test system: Huh-7
# Test: Disruption of cancer stem cell subpopulation of human HuH7 cells assessed as effect on CD133 levels at IC100 after 72 hrs by flow cytometric method (reference value: 0 to 0.6%)
# Type: functional
# Conditions: not given
row,Structure (SMILES),Activity [%]
1,Cc1ccc([S@+]([O-])C2=C(Cl)C(=O)C=CC2=O)cc1,0.2
2,COC1=CC(=O)C(C)=C([S@@+]([O-])c2ccc(C)cc2)C1=O,0.5
3,CCS(=O)(=O)c1ccc(OC)c(Nc2nc(-c3cccc(-c4ccccn4)c3)co2)c1,0.1
4,Cc1ccc([S@+]([O-])C2=CC(=O)C=CC2=O)cc1,0.2
5,COC1=CC(=O)C([S@@+]([O-])c2ccc(C)cc2)=CC1=O,0.3
6,CNC(=O)c1cc(Oc2ccc(NC(=O)Nc3ccc(Cl)c(C(F)(F)F)c3)cc2)ccn1.Cc1ccc(S(=O)(=O)O)cc1 [SORAFENIB TOSYLATE],0.2

# Test system: Huh-7
# Test: Disruption of cancer stem cell subpopulation of human HuH7 cells assessed as effect on EpCAM levels at IC100 after 72 hrs by flow cytometric method (reference value: 13.7 to 33%)
# Type: functional
# Conditions: not given
row,Structure (SMILES),Activity [%]
1,Cc1ccc([S@+]([O-])C2=C(Cl)C(=O)C=CC2=O)cc1,24.7
2,COC1=CC(=O)C(C)=C([S@@+]([O-])c2ccc(C)cc2)C1=O,35.8
3,CCS(=O)(=O)c1ccc(OC)c(Nc2nc(-c3cccc(-c4ccccn4)c3)co2)c1,23.7
4,Cc1ccc([S@+]([O-])C2=CC(=O)C=CC2=O)cc1,30.6
5,COC1=CC(=O)C([S@@+]([O-])c2ccc(C)cc2)=CC1=O,29.1
6,CNC(=O)c1cc(Oc2ccc(NC(=O)Nc3ccc(Cl)c(C(F)(F)F)c3)cc2)ccn1.Cc1ccc(S(=O)(=O)O)cc1 [SORAFENIB TOSYLATE],31.8

# Test system: Hep 3B2
# Test: Disruption of cancer stem cell subpopulation of human Hep3B cells assessed as effect on CD133 levels at IC100 after 72 hrs by flow cytometric method (reference value: 0 to 0.6%)
# Type: functional
# Conditions: not given
row,Structure (SMILES),Activity [%]
1,Cc1ccc([S@+]([O-])C2=C(Cl)C(=O)C=CC2=O)cc1,0
2,COC1=CC(=O)C(C)=C([S@@+]([O-])c2ccc(C)cc2)C1=O,0
3,Cc1ccc([S@+]([O-])C2=CC(=O)C=CC2=O)cc1,0
4,COC1=CC(=O)C([S@@+]([O-])c2ccc(C)cc2)=CC1=O,0

# Test system: Hep 3B2
# Test: Disruption of cancer stem cell subpopulation of human Hep3B cells assessed as effect on EpCAM levels at IC100 after 72 hrs by flow cytometric method (reference value: 0 to 0.6%)
# Type: functional
# Conditions: not given
row,Structure (SMILES),Activity [%]
1,Cc1ccc([S@+]([O-])C2=C(Cl)C(=O)C=CC2=O)cc1,76
2,COC1=CC(=O)C(C)=C([S@@+]([O-])c2ccc(C)cc2)C1=O,87.8
3,Cc1ccc([S@+]([O-])C2=CC(=O)C=CC2=O)cc1,81.4
4,COC1=CC(=O)C([S@@+]([O-])c2ccc(C)cc2)=CC1=O,84.7

# Test system: Mahlavu
# Test: Disruption of cancer stem cell subpopulation of human Mahlavu cells assessed as effect on CD90 levels at IC100 after 72 hrs by flow cytometric method (reference value: 0.6%)
# Type: functional
# Conditions: not given
row,Structure (SMILES),Activity [%]
1,Cc1ccc([S@+]([O-])C2=C(Cl)C(=O)C=CC2=O)cc1,0.5
2,COC1=CC(=O)C(C)=C([S@@+]([O-])c2ccc(C)cc2)C1=O,0.8
3,Cc1ccc([S@+]([O-])C2=CC(=O)C=CC2=O)cc1,0.2
4,COC1=CC(=O)C([S@@+]([O-])c2ccc(C)cc2)=CC1=O,1.4

# Test system: SNU-475
# Test: Disruption of cancer stem cell subpopulation of human SNU475 cells assessed as effect on CD90 levels at IC100 after 72 hrs by flow cytometric method (reference value: 0.2%)
# Type: functional
# Conditions: not given
row,Structure (SMILES),Activity [%]
1,Cc1ccc([S@+]([O-])C2=C(Cl)C(=O)C=CC2=O)cc1,0.3
2,COC1=CC(=O)C(C)=C([S@@+]([O-])c2ccc(C)cc2)C1=O,0.1
3,Cc1ccc([S@+]([O-])C2=CC(=O)C=CC2=O)cc1,0
4,COC1=CC(=O)C([S@@+]([O-])c2ccc(C)cc2)=CC1=O,0.4

# Biological target: Vascular endothelial growth factor receptor 2 (Homo sapiens, UniProt P35968)
# Test: Inhibition of N-terminal GST-fused human VEGFR2 C-terminal fragment expressed in Sf9 insect cells using poly(Glu:Tyr) 4:1 as substrate
# Type: cell-based
# Conditions: not given
# Vascular endothelial growth factor receptor 2, sequence (P35968 whole entry, the tested form may be a part): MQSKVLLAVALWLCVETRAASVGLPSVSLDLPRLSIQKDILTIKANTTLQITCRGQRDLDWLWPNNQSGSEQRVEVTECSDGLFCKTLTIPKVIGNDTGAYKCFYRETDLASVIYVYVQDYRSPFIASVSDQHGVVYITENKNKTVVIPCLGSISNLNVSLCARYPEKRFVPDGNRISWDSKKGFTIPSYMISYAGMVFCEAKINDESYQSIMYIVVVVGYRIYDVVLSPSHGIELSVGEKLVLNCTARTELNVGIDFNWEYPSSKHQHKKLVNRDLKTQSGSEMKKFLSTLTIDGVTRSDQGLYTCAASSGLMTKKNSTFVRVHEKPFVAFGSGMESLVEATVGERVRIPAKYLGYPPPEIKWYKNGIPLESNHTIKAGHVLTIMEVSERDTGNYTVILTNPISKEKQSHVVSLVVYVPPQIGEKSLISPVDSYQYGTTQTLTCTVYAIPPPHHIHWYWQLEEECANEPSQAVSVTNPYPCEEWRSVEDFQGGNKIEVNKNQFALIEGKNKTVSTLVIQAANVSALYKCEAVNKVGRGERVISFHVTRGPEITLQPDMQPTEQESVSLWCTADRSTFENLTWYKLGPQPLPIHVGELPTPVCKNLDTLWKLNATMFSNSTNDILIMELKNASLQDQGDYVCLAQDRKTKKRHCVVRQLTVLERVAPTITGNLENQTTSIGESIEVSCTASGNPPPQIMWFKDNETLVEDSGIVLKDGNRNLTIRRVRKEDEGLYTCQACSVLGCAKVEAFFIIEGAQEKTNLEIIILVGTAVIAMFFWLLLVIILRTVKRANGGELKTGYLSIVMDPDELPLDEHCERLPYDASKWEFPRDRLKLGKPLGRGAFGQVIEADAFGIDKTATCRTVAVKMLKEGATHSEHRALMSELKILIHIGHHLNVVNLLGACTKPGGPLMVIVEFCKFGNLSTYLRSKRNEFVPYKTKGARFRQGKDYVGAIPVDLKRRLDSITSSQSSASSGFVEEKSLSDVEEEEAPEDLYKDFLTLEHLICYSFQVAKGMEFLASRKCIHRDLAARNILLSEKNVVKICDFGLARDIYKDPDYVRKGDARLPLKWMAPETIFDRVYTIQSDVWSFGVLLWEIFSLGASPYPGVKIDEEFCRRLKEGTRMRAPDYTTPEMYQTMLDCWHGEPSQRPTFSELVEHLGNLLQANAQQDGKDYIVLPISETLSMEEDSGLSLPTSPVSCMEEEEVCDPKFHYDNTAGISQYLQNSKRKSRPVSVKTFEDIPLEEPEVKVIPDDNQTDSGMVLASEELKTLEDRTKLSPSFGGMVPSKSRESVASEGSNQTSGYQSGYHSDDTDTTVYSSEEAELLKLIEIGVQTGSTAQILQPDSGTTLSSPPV
row,Structure (SMILES),IC50 [µM]
1,CCS(=O)(=O)c1ccc(OC)c(Nc2nc(-c3cccc(-c4ccccn4)c3)co2)c1,564

# Biological target: Focal adhesion kinase 1 (Homo sapiens) (UniProt Q05397)
# Test: Inhibition of FAK phosphorylation at Y397 in human bone marrow mesenchymal stem cells at 1 uM after 1 hr by immunoblot method relative to control
# Conditions: not given
# Focal adhesion kinase 1 (Homo sapiens), sequence (Q05397 2-1052 limits assumed): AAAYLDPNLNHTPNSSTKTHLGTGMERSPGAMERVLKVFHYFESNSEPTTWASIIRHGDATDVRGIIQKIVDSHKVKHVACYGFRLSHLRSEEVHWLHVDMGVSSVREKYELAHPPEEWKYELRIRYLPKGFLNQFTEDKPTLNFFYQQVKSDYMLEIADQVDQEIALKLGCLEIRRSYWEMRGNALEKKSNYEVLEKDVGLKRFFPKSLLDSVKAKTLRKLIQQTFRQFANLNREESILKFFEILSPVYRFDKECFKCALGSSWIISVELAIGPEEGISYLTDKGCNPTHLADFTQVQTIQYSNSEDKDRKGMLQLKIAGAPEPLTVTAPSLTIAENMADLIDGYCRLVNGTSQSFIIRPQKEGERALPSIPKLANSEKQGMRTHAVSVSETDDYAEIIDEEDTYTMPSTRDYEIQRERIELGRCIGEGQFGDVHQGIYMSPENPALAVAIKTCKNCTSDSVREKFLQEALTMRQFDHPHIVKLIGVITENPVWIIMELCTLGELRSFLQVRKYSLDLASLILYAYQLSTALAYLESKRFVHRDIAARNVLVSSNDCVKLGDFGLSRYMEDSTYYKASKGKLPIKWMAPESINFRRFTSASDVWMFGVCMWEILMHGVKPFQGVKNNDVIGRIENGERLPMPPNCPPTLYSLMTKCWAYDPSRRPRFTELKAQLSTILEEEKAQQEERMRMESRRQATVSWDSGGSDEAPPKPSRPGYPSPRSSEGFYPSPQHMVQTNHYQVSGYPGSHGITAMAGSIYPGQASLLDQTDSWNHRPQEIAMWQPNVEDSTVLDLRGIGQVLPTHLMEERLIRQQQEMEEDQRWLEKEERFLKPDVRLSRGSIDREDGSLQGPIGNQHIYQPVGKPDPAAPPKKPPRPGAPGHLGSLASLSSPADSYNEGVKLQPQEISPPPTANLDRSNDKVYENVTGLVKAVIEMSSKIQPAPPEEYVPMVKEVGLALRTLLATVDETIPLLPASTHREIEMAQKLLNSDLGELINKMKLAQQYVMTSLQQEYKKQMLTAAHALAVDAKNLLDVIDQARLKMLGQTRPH
row,Structure (SMILES),inhibition [%]
1,CO[C@H]1[C@@H](OC)C[C@H](C)[C@@H](OC)C2=CC(=O)C=C(NC(=O)/C(C)=C/C=C\[C@H](OC)[C@@H](OC(N)=O)/C(C)=C/[C@@H]1C)C2=O,61

# Biological target: Focal adhesion kinase 1 (Homo sapiens) (UniProt Q05397)
# Test: Inhibition of FAK phosphorylation at Y397 in human bone marrow mesenchymal stem cells at 5 uM after 1 hr by immunoblot method relative to control
# Conditions: not given
row,Structure (SMILES),inhibition [%]
1,CO[C@H]1[C@@H](OC)C[C@H](C)[C@@H](OC)C2=CC(=O)C=C(NC(=O)/C(C)=C/C=C\[C@H](OC)[C@@H](OC(N)=O)/C(C)=C/[C@@H]1C)C2=O,78
